Columns and labels:
Adult male Wistar rats = experiment: In vivo feeding after ICV injection, rodent chow consumed in 2 hours; parameters: species or system rat; conditions: for Feeding (g/2 h): rats, ICV, 1-6 nmoles peptide, chow consumed in 2 hours, saline <3 g/2 hours
Procedure: Adult male Wistar rats were surgically implanted with a chronic intracerebral ventricular (ICV) cannula (Plastic Products, Roanoke, Va.) using a stereotaxic instrument. Several days after the surgery, 1-6 nmoles of each peptide (or saline) was injected into the lateral ventricle of 4-12 rats in a volume of 5-10 μl The quantity of rodent chow consumed in a 2 hour period was measured.

Rat Y4/PP1 (clone) = Rat Y4/PP1 (clone) (Rattus norvegicus, UniProt Q63447); experiment: Rat Y4/PP1 [125I]PP binding assay
Chain of Rat Y4/PP1 (clone) (Q63447 whole entry): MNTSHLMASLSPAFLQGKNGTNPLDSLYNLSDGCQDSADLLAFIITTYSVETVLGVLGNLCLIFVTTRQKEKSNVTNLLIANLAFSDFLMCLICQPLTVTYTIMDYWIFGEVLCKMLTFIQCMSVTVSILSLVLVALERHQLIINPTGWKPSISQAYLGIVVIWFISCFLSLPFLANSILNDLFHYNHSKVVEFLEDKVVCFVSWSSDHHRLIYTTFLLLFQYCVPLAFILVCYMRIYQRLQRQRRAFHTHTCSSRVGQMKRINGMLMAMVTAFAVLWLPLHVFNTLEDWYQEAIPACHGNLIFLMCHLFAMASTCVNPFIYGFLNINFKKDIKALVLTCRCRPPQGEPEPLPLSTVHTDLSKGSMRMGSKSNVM

CC[C@H](C)[C@H](NC(=O)[C@H](Cc1ccc(O)cc1)NC(=O)[C@H](CCCNC(=N)N)NC(=O)[C@H](CCCNC(=N)N)NC(=O)[C@H](CC(C)C)NC(=O)[C@H](CC(=O)O)NC(=O)[C@H](C)NC(=O)[C@H](C)NC(=O)[C@H](Cc1ccc(O)cc1)NC(=O)[C@H](CCC(N)=O)NC(=O)[C@H](C)NC(=O)[C@H](CCSC)NC(=O)[C@H](CCC(N)=O)NC(=O)[C@H](CCC(=O)O)NC(=O)[C@@H]1CCCN1C(=O)[C@@H](NC(=O)[C@H](C)NC(=O)[C@H](CC(N)=O)NC(=O)[C@H](CC(=O)O)NC(=O)CNC(=O)[C@@H]1CCCN1C(=O)[C@H](Cc1ccc(O)cc1)NC(=O)[C@@H](NC(=O)[C@@H]1CCCN1C(=O)[C@H](CCC(=O)O)NC(=O)[C@H](CC(C)C)NC(=O)[C@@H]1CCCN1C(=O)[C@H](C)N)C(C)C)[C@@H](C)O)C(=O)N[C@@H](CC(N)=O)C(=O)N[C@@H](CCSC)C(=O)N[C@@H](CC(C)C)C(=O)N[C@H](C(=O)N[C@@H](CCCNC(=N)N)C(=O)N1CCC[C@H]1C(=O)N[C@@H](CCCNC(=N)N)C(=O)N[C@@H](Cc1ccc(O)cc1)C(N)=O)[C@@H](C)O [hPP, pancreatic polypeptide]
Feeding (g/2 h) (Adult male Wistar rats): > 5 g/2 h

CC[C@H](C)[C@H](NC(=O)[C@H](Cc1ccc(O)cc1)NC(=O)[C@H](Cc1c[nH]cn1)NC(=O)[C@H](CCCNC(=N)N)NC(=O)[C@H](CC(C)C)NC(=O)[C@H](C)NC(=O)[C@@H](N)CO)C(=O)N[C@@H](CC(N)=O)C(=O)N[C@@H](CC(C)C)C(=O)N[C@H](C(=O)N[C@H](C(=O)N[C@@H](CCCNC(=N)N)C(=O)N[C@@H](CCC(N)=O)C(=O)N[C@@H](CCCNC(=N)N)C(=O)N[C@@H](Cc1ccc(O)cc1)C(N)=O)[C@@H](C)O)[C@@H](C)CC [r/h(22-36)NPY, (22-36)NPY]
Feeding (g/2 h) (Adult male Wistar rats): < 3 g/2 h

CC[C@H](C)[C@H](NC(=O)[C@H](Cc1ccc(O)cc1)NC(=O)[C@@H](N)Cc1c[nH]cn1)C(=O)N[C@@H](CC(N)=O)C(=O)N[C@@H](CC(C)C)C(=O)N[C@H](C(=O)N[C@H](C(=O)N[C@@H](CCCNC(=N)N)C(=O)N[C@@H](CCC(N)=O)C(=O)N[C@@H](CCCNC(=N)N)C(=O)N[C@@H](Cc1ccc(O)cc1)C(N)=O)[C@@H](C)O)[C@@H](C)CC [r/h(26-36)NPY, (26-36)NPY]
Feeding (g/2 h) (Adult male Wistar rats): < 3 g/2 h

CC[C@H](C)[C@H](NC(=O)[C@H](Cc1ccc(O)cc1)NC(=O)[C@H](CCCNC(=N)N)NC(=O)[C@H](CCCNC(=N)N)NC(=O)[C@H](CC(C)C)NC(=O)[C@H](CC(=O)O)NC(=O)[C@H](C)NC(=O)[C@H](C)NC(=O)[C@H](Cc1ccc(O)cc1)NC(=O)[C@H](CCC(N)=O)NC(=O)[C@H](C)NC(=O)[C@H](CCSC)NC(=O)[C@H](CCC(N)=O)NC(=O)[C@H](CCC(=O)O)NC(=O)[C@@H]1CCCN1C(=O)[C@@H](NC(=O)[C@H](C)NC(=O)[C@H](CC(N)=O)NC(=O)[C@H](CC(=O)O)NC(=O)CNC(=O)[C@@H]1CCCN1C(=O)[C@H](Cc1ccc(O)cc1)NC(=O)[C@@H](NC(=O)[C@@H]1CCCN1C(=O)[C@H](CCC(=O)O)NC(=O)[C@H](CC(C)C)NC(=O)[C@@H]1CCCN1C(=O)[C@H](C)N)C(C)C)[C@@H](C)O)C(=O)N[C@@H](CC(N)=O)C(=O)N[C@@H](CCSC)C(=O)N[C@@H](CC(C)C)C(=O)N[C@H](C(=O)N[C@@H](CCCNC(=N)N)C(=O)N1CCC[C@H]1C(=O)N[C@@H](CCCNC(=N)N)C(=O)N[C@@H](Cc1ccc(O)cc1)C(N)=O)[C@@H](C)O [rPP, pancreatic polypeptide]
affinity for the rat Y4/PP1 receptor (Rat Y4/PP1 (clone)): very high affinity
feeding response in rats (Adult male Wistar rats; administered ICV to rats): does not induce much feeding
Feeding (g/2 h) (Adult male Wistar rats): < 3 g/2 h

From patent US5919901A (priority 1996, dated 1999)
